Measured values from patent publication US10392348B2, “2-oxo-3,4-dihydroquinoline compounds as plant growth regulators” (Syngenta Participations AG, priority 2015, dated 2019).
Like-named read-outs stand apart in the source and are kept apart here. Blank lines part the entries; values can stand above or below the compound they belong to.

Experiments:
[1] = system: corn plants (variety NK OCTET); test: Reduced plant water use in corn (foliar spray, repeated weighing of pots); format: in vivo; conditions: Zea mays, corn plants sprayed at 500 μM, average of 6 pots
Procedure: Compounds were tested for their effect on reducing plant water use as follows. The compounds were applied by foliar spray to 12 day old corn plants (variety NK OCTET) grown in controlled environment plant growth chambers. All compounds were applied using an emulsifiable concentrate (EC) formulation that was diluted to the desired concentrations with water containing 0.4% of the adjuvant rape seed methyl ester. Plant water use during the day was assessed by repeated weighing of the pots in which the plants were grown before and after application of the compounds at the indicated times (expressed in days after application (DAA)). The water use data before application was used to correct any differences in water use arising due to non-treatment effects (e.g. due to differences in plant size). The untransformed water use values were subjected to an analysis of covariance, fitting the effect of treatment and using the baseline water use 1 day before application as a covariate. Application of the chemicals (0 DAA) takes place approximately between 08:00 and 09:30 a.m. WU is measured within day time (chamber light is on 06:00 to 20:00) at these timepoints: 0 DAA a.m. (10:30-12:50), 0 DAA p.m. (14:00-19:50), 1 DAA a.m. (07:30-12:50), 1 DAA p.m. (14:00-19:50), 2 DAA a.m. (07:30-12:50) and 2 DAA p.m. (14:00-19:50). The cumulative total WU (0-2.5 DAA) is calculated by summing the WU data mentioned above.

[2] = system: soybean plants (variety S20-G7); test: Reduced plant water use in soybean (foliar spray, repeated weighing of pots); format: in vivo; conditions: Glycine max, foliar, Table B1, sprayed at 500 μM, vs negative control
Procedure: Compounds were tested for their effect on reducing plant water use as follows. Each compound was dissolved in a blank emulsifiable concentrate (EC) formulation that was then diluted to the desired concentration with water containing additional surfactant (EXTRAVON 1 g/20 L). The compounds were applied by foliar spray to 12 day old soybean plants (variety S20-G7) grown in controlled environment plant growth chambers. Plant water use during the day was assessed by repeated weighing of the pots in which the plants were grown before and after application of the compounds at the indicated times (expressed in days after application (DAA)). The water use data before application was used to correct any differences in water use arising due to non-treatment effects (e.g. due to differences in plant size). The untransformed water use values were subjected to an analysis of covariance, fitting the effect of treatment and using the baseline water use 1 day before application as a covariate.
The results are expressed compared to negative control treatment (diluted EC formulation without active ingredient but with EXTRAVON 1 g/20 L).
Application of the chemicals (0 DAA) takes place approximately between 08:00 and 09:30 a.m. WU is measured within day time (chamber light is on 06:00 to 20:00) at these timepoints: 0 DAA a.m. (10:30-12:50), 0 DAA p.m. (14:00-19:50), 1 DAA a.m. (7:30-12:50), 1 DAA p.m. (14:00-19:50), 2 DAA a.m. (07:30-12:50) and 2 DAA p.m. (14:00-19:50). The cumulative total WU (0-2.5 DAA) is calculated by summing the WU data mentioned above.

[3] = 0 h, water use during day time vs negative control, 0 DAA a.m. (10:30-12:50), read-out: % WU 0 DAA AM
[4] = 0 h, water use during day time vs negative control, 0 DAA p.m. (14:00-19:50), read-out: % WU 0DAA PM
[5] = 24 h, water use during day time vs negative control, 1 DAA a.m. (07:30-12:50), read-out: % WU 1DAA AM
[6] = 24 h, water use during day time vs negative control, 1 DAA p.m. (14:00-19:50), read-out: % WU 1DAA PM
[7] = 48 h, water use during day time vs negative control, 2 DAA a.m. (07:30-12:50), read-out: % WU 2 DAA AM
[8] = 48 h, water use during day time vs negative control, 2 DAA p.m. (14:00-19:50), read-out: % WU 2 DAA PM
[9] = 60 h, cumulative total water use 0-2.5 DAA (sum of the time points) vs negative control, read-out: % WU Total 0 to 2.5 DAA
[10] = 0 h, 0 DAA a.m. (10:30-12:50), read-out: % WU 0 DAA AM
[11] = 24 h, 1 DAA a.m. (7:30-12:50), read-out: % WU 1DAA AM
[12] = 24 h, 1 DAA p.m. (14:00-19:50), read-out: % WU 1DAA PM
[13] = 48 h, 2 DAA a.m. (07:30-12:50), read-out: % WU 2 DAA AM
[14] = 48 h, 2 DAA p.m. (14:00-19:50), read-out: % WU 2 DAA PM
[15] = 60 h, cumulative total WU (0-2.5 DAA), read-out: % WU Total 0 to 2.5 DAA

- melting point: 138 to 140 °C
SMILES: CCCN1C(=O)CCc2cc(CNS(=O)(=O)c3ccc(C(F)(F)F)cc3)ccc21 [Compound 3.015, N-[(2-oxo-1-propyl-3,4-dihydroquinolin-6-yl)methyl]-4-(trifluoromethyl)benzenesulfonamide]

- melting point: 172 to 174 °C
SMILES: CCCN1C(=O)CCc2cc(CNS(=O)(=O)/C=C/c3ccc(C)cc3)ccc21 [Compound 3.059, (E)-N-[(2-oxo-1-propyl-3,4-dihydroquinolin-6-yl)methyl]-2-(p-tolyl)ethenesulfonamide]

- melting point: 148 to 153 °C
SMILES: CCCN1C(=O)CCc2cc(CNS(=O)(=O)/C=C/c3cccc(Br)c3)ccc21 [Compound 3.070, (E)-2-(3-bromophenyl)-N-[(2-oxo-1-propyl-3,4-dihydroquinolin-6-yl)methyl]ethenesulfonamide]

The next lines start with the compound.

SMILES: CCCN1C(=O)CCc2cc(CNS(=O)(=O)c3ccc(C)cc3C)ccc21
- melting point: 166 to 167 °C

SMILES: CCN1C(=O)CCc2cc(CNS(=O)(=O)c3ccccc3C)ccc21 [Compound 2.011, N-[(1-ethyl-2-oxo-3,4-dihydroquinolin-6-yl)methyl]-2-methyl-benzenesulfonamide]
- melting point: 203 to 206 °C

SMILES: CCN1C(=O)CCc2cc(CNS(=O)(=O)c3ccc(C)cc3)ccc21 [Compound 2.012, N-[(1-ethyl-2-oxo-3,4-dihydroquinolin-6-yl)methyl]-4-methyl-benzenesulfonamide]
- melting point: 202 to 203 °C

SMILES: CCN1C(=O)CCc2cc(CNS(=O)(=O)c3ccccc3Br)ccc21 [Compound 2.017, 2-bromo-N-[(1-ethyl-2-oxo-3,4-dihydroquinolin-6-yl)methyl]benzenesulfonamide]
- melting point: 206 to 207 °C

SMILES: CCN1C(=O)CCc2cc(CNS(=O)(=O)C3CC3)ccc21 [Compound 2.018, N-[(1-ethyl-2-oxo-3,4-dihydroquinolin-6-yl)methyl]cyclopropanesulfonamide]
- melting point: 104 to 106 °C

SMILES: CCN1C(=O)CCc2cc(CNS(=O)(=O)/C=C/c3ccc(Br)cc3)ccc21 [Compound 2.052, (E)-2-(4-bromophenyl)-N-[(1-ethyl-2-oxo-3,4-dihydroquinolin-6-yl)methyl]ethenesulfonamide]
- melting point: 119 to 124 °C

SMILES: CCN1C(=O)CCc2cc(CNS(=O)(=O)/C=C/c3ccc(C)cc3)ccc21 [Compound 2.059, (E)-N-[(1-ethyl-2-oxo-3,4-dihydroquinolin-6-yl)methyl]-2-(p-tolyl)ethenesulfonamide]
- melting point: 151 to 153 °C

SMILES: CCN1C(=O)CCc2cc(CNS(=O)(=O)c3cn(C)cn3)ccc21 [Compound 2.063, N-[(1-ethyl-2-oxo-3,4-dihydroquinolin-6-yl)methyl]-1-methyl-imidazole-4-sulfonamide]
- melting point: 165 to 167 °C

SMILES: CCN1C(=O)CCc2cc(CNS(=O)(=O)c3cc(Cl)sc3Cl)ccc21 [Compound 2.064, 2,5-dichloro-N-[(1-ethyl-2-oxo-3,4-dihydroquinolin-6-yl)methyl]thiophene-3-sulfonamide]
- melting point: 198 to 201 °C

SMILES: CCCN1C(=O)CCc2cc(C3(NS(=O)(=O)c4ccc(F)cc4F)CC3)ccc21 [Compound 15.006, 2,4-difluoro-N-[1-(2-oxo-1-propyl-3,4-dihydroquinolin-6-yl)cyclopropyl]benzenesulfonamide]
- change in vivo at 500 µM [1, 3]: -10.2%
- change in vivo at 500 µM [1, 4]: -3%
- change in vivo at 500 µM [1, 5]: -1.4%
- change in vivo at 500 µM [1, 6]: 0.1%
- change in vivo at 500 µM [1, 7]: 1.7%
- change in vivo at 500 µM [1, 8]: 1.1%
- change in vivo at 500 µM [1, 9]: -1.2%
- change in vivo at 500 µM [2, 10]: -32.6%
- change in vivo at 500 µM [2, 11]: -23.6%
- change in vivo at 500 µM [2, 12]: -24.4%
- change in vivo at 500 µM [2, 13]: -17%
- change in vivo at 500 µM [2, 14]: -17.8%
- change in vivo at 500 µM [2, 15]: -23.8%

SMILES: CCN1C(=O)CC(C)c2cc(CNS(=O)(=O)c3ccccc3)ccc21 (centres unmarked) [Compound 20.001, N-[(1-ethyl-4-methyl-2-oxo-3,4-dihydroquinolin-6-yl)methyl]benzenesulfonamide]
- change in vivo at 500 µM [1, 3]: -21.7%
- change in vivo at 500 µM [1, 4]: -18.3%
- change in vivo at 500 µM [1, 5]: -19.2%
- change in vivo at 500 µM [1, 6]: -10.3%
- change in vivo at 500 µM [1, 7]: -8.1%
- change in vivo at 500 µM [1, 8]: -5.5%
- change in vivo at 500 µM [1, 9]: -12.9%
- change in vivo at 500 µM [2, 10]: -50.1%
- change in vivo at 500 µM [2, 11]: -58.5%
- change in vivo at 500 µM [2, 12]: -55.2%
- change in vivo at 500 µM [2, 13]: -55.8%
- change in vivo at 500 µM [2, 14]: -50.5%
- change in vivo at 500 µM [2, 15]: -54.4%
